Test results as given in US20020086876A1, “Treatment of anti-depression drug-induced sexual dysfunction with apomorphine” (priority 2000, published 2002).

Test system: sexual dysfunction in male patients taking selective serotonin reuptake inhibitors
Assay: Crossover home-use trial of sublingual apomorphine in male patients taking SSRIs (sexual function questionnaire)
Assay type: in vivo, human (male patients)
Details: male patients on SSRI's
Description: A crossover study of 1500 patients in a home-use trial of apomorphine on male patients was performed.
In the crossover study, a 2-4 week baseline period was used to evaluate subjects. After this time, during an initial four week treatment period, subjects received either a placebo or apomorphine, without knowing whether or not they had received the active medication. The dosage was either 2, 4, 5 or 6 mg. This initial treatment period was followed by a 24-96 hour washout period, in which no medication was taken. Subsequently, a second four week treatment period, subjects who previously had received apomorphine, were given a placebo, and subjects who previously had received the placebo were given apomorphine. Subject were to attempt coitus once each week after taking a single tablet of apomorphine sublingually. After each attempt, the subject and their partner completed a sexual function questionnaire which was later evaluated and used for final statistical analysis. In the analysis, the data for patients receiving 2, 4, 5 or 6 mg dosages was pooled.

`CN1CCc2cccc3c2[C@H]1Cc1ccc(O)c(O)c1-3` [apomorphine, (R)-5,6,6a,7-tetrahydro-6-methyl-4H-dibenzo-[de,g]quinoline-10,11-diol] was tested, and the “patients on SSRI drugs able to have intercourse after apomorphine, relative to placebo” value (apomorphine versus placebo) was “twice as many patients on SSRI drugs were able to have intercourse”, the “attempts successful: attempt resulted in intercourse” value (single sublingual tablet, pooled 2, 4, 5 or 6 mg dosages, four week treatment period, placebo 23.4%) was 47.6% and the “attempts successful: erection firm enough for intercourse attained” value (single sublingual tablet, pooled 2, 4, 5 or 6 mg dosages, four week treatment period, placebo 26%) was 48%.
